From ChEMBL document CHEMBL1150696, “Griffonianone D, an isoflavone with anti-inflammatory activity from the root bark of Millettia griffoniana” (2003)
The source made the active and inactive calls. The calls are words filed in the database; no cut-off is given here.

Columns and labels:
Mus musculus [1] = assay: Antiinflammatory activity against PLA2-induced Swiss mouse paw edema at 5 mg/kg, ip administered 30 mins before PLA2 challenge; type: functional; settings: route intraperitoneal
Mus musculus [2] = assay: Antiinflammatory activity against PLA2-induced Swiss mouse paw edema at 5 mg/kg, ip administered 30 mins before PLA2 challenge
Mus musculus [3] = assay: Antiinflammatory activity against carrageenan-induced Swiss mouse paw edema at 10 mg/kg, po; type: functional
Mus musculus [4] = assay: Antiinflammatory activity against TPA-induced Swiss mouse ear edema assessed as reduction in ear swelling at 0.5 mg/ear topically after 4 hrs relative to control; type: functional
Mus musculus [5] = assay: Antiinflammatory activity against TPA-induced Swiss mouse ear edema assessed as reduction in ear swelling at 0.25 mg/ear topically after 4 hrs relative to control; type: functional
Mus musculus [6] = assay: Antiinflammatory activity against PLA2-induced Swiss mouse paw edema at 5 mg/kg, ip administered 60 mins before PLA2 challenge; type: functional; settings: route intraperitoneal
[7] = molecular target: Prostaglandin G/H synthase 1 (Homo sapiens) (UniProt P23219); assay: Inhibition of cyclooxygenase 1 in human platelet assessed as 12-hydroxyheptadecatrienoic acid production
[8] = molecular target: T1, Polyunsaturated fatty acid 5-lipoxygenase (Rattus norvegicus) (UniProt P12527); assay: Inhibition of 5-lipoxygenase in rat leukocytes assessed as inhibition of calcium ionophore A-23187/calcium-stimulated LTB4 production; type: cell-based
T1 sequence (whole entry): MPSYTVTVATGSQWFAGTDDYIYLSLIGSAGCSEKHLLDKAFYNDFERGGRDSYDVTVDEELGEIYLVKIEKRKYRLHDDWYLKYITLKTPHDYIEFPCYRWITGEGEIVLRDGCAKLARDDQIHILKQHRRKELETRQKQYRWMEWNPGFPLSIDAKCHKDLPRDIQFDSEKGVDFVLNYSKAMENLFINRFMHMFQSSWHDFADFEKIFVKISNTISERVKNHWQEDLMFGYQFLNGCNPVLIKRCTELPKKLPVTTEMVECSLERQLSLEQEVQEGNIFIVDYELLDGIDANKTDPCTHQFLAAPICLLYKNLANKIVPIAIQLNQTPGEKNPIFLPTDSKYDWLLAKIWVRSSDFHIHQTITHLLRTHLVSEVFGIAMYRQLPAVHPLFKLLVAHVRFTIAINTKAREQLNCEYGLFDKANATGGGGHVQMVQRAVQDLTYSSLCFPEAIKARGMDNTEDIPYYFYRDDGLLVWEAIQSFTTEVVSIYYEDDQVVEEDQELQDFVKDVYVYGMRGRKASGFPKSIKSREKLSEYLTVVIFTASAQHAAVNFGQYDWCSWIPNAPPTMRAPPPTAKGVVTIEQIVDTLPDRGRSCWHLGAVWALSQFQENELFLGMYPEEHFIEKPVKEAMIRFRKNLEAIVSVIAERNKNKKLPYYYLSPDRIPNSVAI

Sequence of Prostaglandin G/H synthase 1 (Homo sapiens) (P23219 whole entry): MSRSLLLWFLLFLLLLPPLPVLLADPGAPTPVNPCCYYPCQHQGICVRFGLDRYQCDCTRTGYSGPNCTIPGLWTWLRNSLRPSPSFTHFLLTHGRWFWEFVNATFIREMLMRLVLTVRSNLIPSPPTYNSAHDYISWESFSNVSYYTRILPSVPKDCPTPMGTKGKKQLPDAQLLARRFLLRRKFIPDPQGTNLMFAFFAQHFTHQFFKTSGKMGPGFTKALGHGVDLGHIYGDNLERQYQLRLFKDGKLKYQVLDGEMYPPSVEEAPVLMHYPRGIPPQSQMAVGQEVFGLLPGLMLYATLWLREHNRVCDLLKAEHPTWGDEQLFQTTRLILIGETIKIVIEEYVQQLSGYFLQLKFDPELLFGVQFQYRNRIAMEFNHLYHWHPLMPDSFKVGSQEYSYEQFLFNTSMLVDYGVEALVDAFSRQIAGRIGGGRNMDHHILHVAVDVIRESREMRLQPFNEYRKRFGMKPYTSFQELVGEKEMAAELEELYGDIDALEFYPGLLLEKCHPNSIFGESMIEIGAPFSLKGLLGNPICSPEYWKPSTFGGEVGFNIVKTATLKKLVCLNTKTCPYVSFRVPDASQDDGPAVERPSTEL

SMILES: CN1CCC(=C2c3ccccc3C=Cc3ccccc32)CC1 [CYPROHEPTADINE]
- inhibition in vivo at 5 mg/kg (Mus musculus [1]): 82%
- inhibition in vivo at 5 mg/kg (Mus musculus [2]): 82%

SMILES: COc1ccc2c(c1)c(CC(=O)O)c(C)n2C(=O)c1ccc(Cl)cc1 [INDOMETHACIN]
- inhibition in vivo at 10 mg/kg (Mus musculus [3]): 60%
- inhibition (INH) (Mus musculus [4]): 82%

SMILES: COc1ccc(-c2coc3cc(OC/C=C(\C)CCC(O)C(C)(C)O)ccc3c2=O)cc1 (centres undefined) [GRIFFONIANONE D]
- inhibition in vivo at 5 mg/kg (Mus musculus [1]): 42%
- inhibition (INH) (Mus musculus [5]): 77%
- inhibition in vivo at 5 mg/kg (Mus musculus [6]): 30%
- Activity [7]: inactive
- Activity [8]: inactive
